From patent publication US7763615B2, “Ecteinascidin analogs for use as antitumour agents” (priority 2001, dated 2010)
Where two headings read alike, the source gives them in different places.

Key:
Assay in all cases: cells
Type in all cases: cell-based
HELA-APL = details: for GI50 / CC50: Homo sapiens
Outline: (§1)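 SRB colorimetric read-out (490 nm) after TCA fixation gave GI, TGI and LC values from triplicate wells. Before that, cells (5×10^3/well, RPMI 1640 with 10% FBS, 37 °C, 5% CO2) grew drug-free 18 h and were then continuously exposed 48 h to 10–10^−8 μg/ml compound.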

IGROV-ET = details: Homo sapiens
Outline: as §1

HT29 = tested on: HT29
Outline: as §1

MEL-28 = details: Homo sapiens
Outline: as §1

DU145 = details: Homo sapiens
Outline: as §1

LNCAP = details: Homo sapiens
Outline: as §1

K562 = details: Homo sapiens
Outline: as §1

HELA = details: for GI50 / CC50: Homo sapiens
Outline: as §1

A549 = details: for GI50: read-out: GI50
Outline: as §1

SK-BR3 = details: Homo sapiens
Outline: as §1

LOVO-DOX = details: Homo sapiens
Outline: as §1

IGROV = details: Homo sapiens
Outline: as §1

PANC-1 = details: Homo sapiens
Outline: as §1

LOVO = details: Homo sapiens
Outline: as §1

[1] = HELA-APL, 48 hours exposure, SRB
[2] = 48 h, IGROV-ET, 48 hours exposure, SRB
[3] = SK-MEL-28, 48 h, MEL-28, 48 hours exposure, SRB
[4] = DU-145, 48 h, DU145, 48 hours exposure, SRB
[5] = LNCaP, 48 h, 48 hours exposure, SRB
[6] = K562, 48 h, K562, 48 hours exposure, SRB
[7] = SK-BR-3, 48 h, SK-BR3, 48 hours exposure, SRB
[8] = 48 h, LOVO-DOX, 48 hours exposure, SRB
[9] = PANC-1, 48 h, PANC-1, 48 hours exposure, SRB
[10] = LoVo, 48 h, 48 hours exposure, SRB
[11] = Homo sapiens, HT-29, 48 h, HT29, 48 hours exposure, SRB

SMILES: COc1c(C)cc2c(c1O)[C@@H]1C3[C@@H]4SC[C@]5(C(=O)COC[C@@H](c6c7c(c(C)c(OC(C)=O)c64)OCO7)N3[C@@H](C#N)[C@H](C2)N1C)c1[nH]c2ccccc2c1CCN5C (stereo partly drawn) [Compound 14]
- TGI (HELA-APL; [1]): 4.88E−07 Molar
- GI50 (HELA-APL; 48 h): 243 nM
- CC50 (HELA-APL; HELA-APL, 48 hours exposure, SRB, read-out: LC50 (the source's name)): 980 nM
- GI50 (IGROV-ET; [2]): 569 nM
- IC (TGI) (IGROV-ET; [2]): 1300 nM
- CC50 (IGROV-ET; IGROV-ET, 48 hours exposure, SRB, read-out: LC50 (the source's name)): 12900 nM
- GI50 (HT29; HT29, 48 hours exposure, SRB): 418 nM
- TGI (HT29; HT29, 48 hours exposure, SRB): 1.59E−06 Molar
- CC50 (HT29; HT29, 48 hours exposure, SRB, read-out: LC50 (the source's name)): 12900 nM
- GI50 (MEL-28; [3]): 198 nM
- IC (TGI) (MEL-28; [3]): 519 nM
- CC50 (MEL-28; SK-MEL-28, MEL-28, 48 hours exposure, SRB, read-out: LC50 (the source's name)): 2370 nM
- GI50 (DU145; [4]): 94.6 nM
- IC (TGI) (DU145; [4]): 1390 nM
- CC50 (DU145; DU-145, DU145, 48 hours exposure, SRB, read-out: LC50 (the source's name)): 12900 nM
- GI50 (LNCAP; [5]): 61.2 nM
- IC (TGI) (LNCAP; [5]): 177 nM
- CC50 (LNCAP; LNCAP, 48 hours exposure, SRB, read-out: LC50 (the source's name)): 535 nM
- GI50 (K562; [6]): 44.7 nM
- IC (TGI) (K562; [6]): 174 nM
- CC50 (K562; K562, 48 hours exposure, SRB, read-out: LC50 (the source's name)): 1290 nM
- TGI (HELA; HELA, 48 hours exposure, SRB): 3.10E−07 Molar
- GI50 (HELA; HELA, 48 hours exposure, SRB): 114 nM
- CC50 (HELA; HELA, 48 hours exposure, SRB, read-out: LC50 (the source's name)): 810 nM
- TGI (A549; A549, 48 hours exposure, SRB): 8.25E−07 Molar
- GI50 (A549; A549, 48 hours exposure, SRB): 264 nM
- CC50 (A549; A549, 48 hours exposure, SRB, read-out: LC50 (the source's name)): 6860 nM
- GI50 (SK-BR3; [7]): 217 nM
- IC (TGI) (SK-BR3; [7]): 537 nM
- CC50 (SK-BR3; SK-BR-3, SK-BR3, 48 hours exposure, SRB, read-out: LC50 (the source's name)): 1620 nM
- GI50 (LOVO-DOX; [8]): 584 nM
- IC (TGI) (LOVO-DOX; [8]): 3840 nM
- CC50 (LOVO-DOX; LOVO-DOX, 48 hours exposure, SRB, read-out: LC50 (the source's name)): 12900 nM
- GI50 (IGROV; 48 h, 48 hours exposure, SRB): 226 nM
- IC (TGI) (IGROV; 48 h, 48 hours exposure, SRB): 744 nM
- CC50 (IGROV; 48 hours exposure, SRB, read-out: LC50 (the source's name)): 5140 nM
- GI50 (PANC-1; [9]): 276 nM
- IC (TGI) (PANC-1; [9]): 825 nM
- CC50 (PANC-1; PANC-1, 48 hours exposure, SRB, read-out: LC50 (the source's name)): 12900 nM
- GI50 (LOVO; [10]): 141 nM
- IC (TGI) (LOVO; [10]): 393 nM
- CC50 (LOVO; LOVO, 48 hours exposure, SRB, read-out: LC50 (the source's name)): 1100 nM

SMILES: COc1c(C)cc2c(c1O)[C@@H]1C3[C@@H]4SC[C@]5(NCCc6c5[nH]c5ccccc65)C(=O)COC[C@@H](c5c6c(c(C)c(OC(=O)C(F)(F)C(F)(F)C(F)(F)F)c54)OCO6)N3[C@@H](C#N)[C@H](C2)N1C (stereo partly drawn) [Compound 51]
- TGI (HELA-APL; [1]): 4.97E−08 Molar
- GI50 (HELA-APL; 48 h): 29.1 nM
- CC50 (HELA-APL; 48 h, read-out: LC50): 84.6 nM
- GI50 (IGROV-ET; [2]): 263 nM
- IC (TGI) (IGROV-ET; [2]): 7470 nM
- CC50 (IGROV-ET; 48 h, read-out: LC50): 11200 nM
- GI50 (HT29; [11]): 38.2 nM
- IC (TGI) (HT29; [11]): 1310 nM
- CC50 (HT29; Homo sapiens, HT-29, 48 h, read-out: LC50, HT29, 48 hours exposure, SRB): 11100 nM
- GI50 (MEL-28; [3]): 28.4 nM
- IC (TGI) (MEL-28; [3]): 50.3 nM
- CC50 (MEL-28; SK-MEL-28, 48 h, read-out: LC50): 89.3 nM
- GI50 (DU145; [4]): 48.3 nM
- IC (TGI) (DU145; [4]): 323 nM
- CC50 (DU145; DU-145, 48 h, read-out: LC50): 11200 nM
- GI50 (LNCAP; [5]): 13.1 nM
- IC (TGI) (LNCAP; [5]): 27 nM
- CC50 (LNCAP; LNCaP, 48 h, read-out: LC50): 54.8 nM
- GI50 (K562; [6]): 16.5 nM
- IC (TGI) (K562; [6]): 46.2 nM
- CC50 (K562; K562, 48 h, read-out: LC50): 114 nM
- TGI (HELA; HELA, 48 hours exposure, SRB): 4.85E−08 Molar
- CC50 (HELA; HeLa, 48 h, read-out: LC50): 98 nM
- GI50 (HELA; HELA, 48 hours exposure, SRB): 24 nM
- GI50 (A549; Homo sapiens, A549, 48 h, A549, 48 hours exposure, SRB): 26.7 nM
- IC (TGI) (A549; Homo sapiens, A549, 48 h, A549, 48 hours exposure, SRB, read-out: TGI): 61.1 nM
- CC50 (A549; Homo sapiens, A549, 48 h, read-out: LC50, A549, 48 hours exposure, SRB): 1290 nM
- GI50 (SK-BR3; [7]): 39.8 nM
- IC (TGI) (SK-BR3; [7]): 99.3 nM
- CC50 (SK-BR3; SK-BR-3, 48 h, read-out: LC50): 3110 nM
- GI50 (LOVO-DOX; [8]): 381 nM
- IC (TGI) (LOVO-DOX; [8]): 3090 nM
- CC50 (LOVO-DOX; 48 h, read-out: LC50): 11200 nM
- GI50 (IGROV; 48 h, 48 hours exposure, SRB): 32.3 nM
- IC (TGI) (IGROV; 48 h, 48 hours exposure, SRB): 63.3 nM
- CC50 (IGROV; 48 h, read-out: LC50): 3550 nM
- GI50 (PANC-1; [9]): 41.9 nM
- IC (TGI) (PANC-1; [9]): 133 nM
- CC50 (PANC-1; PANC-1, 48 h, read-out: LC50): 2000 nM
- GI50 (LOVO; [10]): 21.1 nM
- IC (TGI) (LOVO; [10]): 38.8 nM
- CC50 (LOVO; LoVo, 48 h, read-out: LC50): 71 nM
